Test results from the supplement of paper PMC12317010.
Where a name gives a salt, the structure may show the parent alone.

Assay: collision cross section in nitrogen (drift tube, single-field); higher = larger gas-phase ion size
[1] = ion type: [M+H], ion source: ESI, ion mode: Positive
[2] = ion type: [M+Na], ion source: ESI, ion mode: Positive
[3] = ion type: [M-H], ion source: ESI, ion mode: Negative
[4] = ion type: [M+H], ion source: APCI, ion mode: Positive
[5] = ion type: [M+], ion source: APCI, ion mode: Positive
[6] = ion source: APCI, ion mode: Positive, ion type: [M]+ (permanent cation)
[7] = ion source: ESI, ion mode: Positive, ion type: [M]+ (permanent cation)
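Also: chemical standards at 10 µM analysed by drift tube IMS-QTOF MS in about 3.95 torr nitrogen, mean of duplicate injections differing ≤1%, mass error below 10 ppm.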

Structure (SMILES)	collision cross section in nitrogen [1] [Å²]	collision cross section in nitrogen [2] [Å²]	collision cross section in nitrogen [3] [Å²]	collision cross section in nitrogen [4] [Å²]	further results
CC(C)(C#N)c1cc(Cn2cncn2)cc(C(C)(C)C#N)c1 [Anastrozole]	183.5	188.9	178.4	–	–
O=C(O)c1ccc2c(c1)C(=O)OC2=O [Trimellitic anhydride]	–	–	146.5	–	–
O=S(=O)(O)c1ccc2cc(O)ccc2c1 [Potassium 6-hydroxynaphthalene-2-sulfonate]	–	–	148.2	–	–
CCOC(=O)CC(O)(CC(=O)OCC)C(=O)OCC [Triethyl citrate]	–	169.1	–	–	–
C[C@]12CCC(=O)C=C1CC[C@@H]1[C@@H]2CC[C@@]2(C)[C@H]1CC[C@]2(C)O [17-Methyltestosterone]	177.6	–	–	–	–
COC(OC)(C(=O)c1ccccc1)c1ccccc1 [2,2-Dimethoxy-1,2-diphenylethanone]	–	170.6	–	–	–
Cc1ccc(NC(=O)N(C)C)cc1NC(=O)N(C)C [3,3'-(4-Methylbenzene-1,3-diyl)bis(1,1-dimethylurea)]	162.7	167.6	165.1	–	–
CCC(C)(CCC(C)C)C(=O)O (stereo unspecified) [Neodecanoic acid]	–	–	145.2	–	–
CCN(CC)C(=O)C(C)Oc1cccc2ccccc12 (stereo unspecified) [Napropamide]	164.2	172	–	163.8	–
CCOc1cc(C(C)(C)C)ccc1C1COC(c2c(F)cccc2F)=N1 (stereo unspecified) [Etoxazole]	186.5	196	–	186.3	collision cross section in nitrogen [5]: 186.5 Å²
CC(C)OC(=O)c1ccccc1C(=O)OC(C)C [Diisopropyl phthalate]	–	169.9	–	–	–
CNC(=O)N(C)c1nnc(C(C)(C)C)s1 [Tebuthiuron]	150.5	162.9	–	150.4	–
CCCCNc1ccc(NCCCC)c2c1C(=O)c1ccccc1C2=O [1,4-Bis(butylamino)anthracene-9,10-dione]	192.8	207.7	–	192.4	collision cross section in nitrogen [5]: 190.2 Å²
O=[N+]([O-])c1ccccc1O [Sodium 2-nitrophenolate]	–	–	121.6	–	–
CCCCOCCOCCOC(=O)CCCCC(=O)OCCOCCOCCCC [Bis[2-(2-butoxyethoxy)ethyl] adipate]	205.4	198.8	–	203.8	–
Cc1c(O)cccc1O [2-Methyl-1,3-benzenediol]	–	–	123.6	–	–
CC(C)c1nnc2ccc(-c3ocnc3-c3cc(F)ccc3F)cn12	177	196.3	178.7	177.3	–
CCCCCCCCCCCCCCCC[n+]1ccccc1 [Cetylpyridinium chloride]	–	–	–	–	collision cross section in nitrogen [6]: 193.3 Å²; collision cross section in nitrogen [7]: 193.7 Å²
CCCCCCCCCCCCCC[N+](C)(C)C [Myristyltrimethylammonium chloride]	–	–	–	–	collision cross section in nitrogen [6]: 185.2 Å²; collision cross section in nitrogen [7]: 185.7 Å²

Structure (SMILES)	collision cross section in nitrogen [1] [Å²]	collision cross section in nitrogen [2] [Å²]	collision cross section in nitrogen [3] [Å²]	collision cross section in nitrogen [4] [Å²]	further results
CC(=O)Nc1ccc(O)cc1 [Acetaminophen]	–	–	132.5	–	–
O=c1[nH]c2ccc(Cl)cc2o1 [6-Chloro-2,3-dihydrobenzoxazol-2-one]	–	–	125.6	–	–
CC(C)N(Cc1ccccc1)C(=O)C(C)(C)C [Butam]	154.5	163.4	–	154.6	–
CC(C)Oc1cccc(NC(=O)c2ccccc2C(F)(F)F)c1 [Flutolanil]	172.7	183.5	176.1	173.1	–
COCC(=O)N(c1c(C)cccc1C)N1CCOC1=O [Oxadixyl]	–	167.1	–	–	–
Cc1cc(C)nc(N)n1 [2-Amino-4,6-dimethylpyrimidine]	123	–	–	123.7	–
c1cc(OCC2CO2)ccc1Cc1ccc(OCC2CO2)cc1 (stereo unspecified) [Bis[4-(glycidyloxy)phenyl]methane]	–	169	–	–	–
Cc1ccc(-c2ccccc2)cc1 [4-Phenyltoluene]	–	135.4	–	–	–
CN1C(C)(C)CC(O)CC1(C)C [1,2,2,6,6-Pentamethylpiperidin-4-ol]	136.9	–	–	136	–
CC(C)c1ccc(NC(=O)N(C)C)cc1 [Isoproturon]	152.1	158.8	155.4	152.9	–
CCOC(=O)NC(=S)Nc1ccccc1NC(=S)NC(=O)OCC [Thiophanate]	186.6	189.6	–	187	collision cross section in nitrogen [5]: 187.5 Å²
CCCCc1nc2cccnc2n1Cc1ccc(-c2ccccc2-c2nnn[nH]2)cc1	196.8	205.8	204.3	197	–
CC[C@H](NC(=O)c1cc(F)ccc1NS(=O)(=O)c1cccc2cccnc12)c1ccccc1 [AVE3295]	197.4	205.8	203	198	–
CCC(CO)(CO)COCC(CC)(CO)CO [2,2'-(Oxydimethanediyl)bis(2-ethylpropane-1,3-diol)]	–	159.6	158.6	–	–
Cc1ccn2nc(S(=O)(=O)Nc3c(F)cccc3F)nc2n1 [Flumetsulam]	167.7	176.7	172.5	167.4	–
Clc1ccc2[nH]nnc2c1 [5-Chlorobenzotriazole]	128.5	–	123.2	–	–
Nc1ccc(Cc2ccc(N)cc2)cc1 [4,4'-Diaminobiphenyl methane]	163.1	–	–	163.3	–
O=C(O)C(=O)Cc1c[nH]c2ccccc12 [Indole-3-pyruvic acid]	–	–	141.6	139.3	–
CC(=O)Nc1ccc(C)cc1C [N-(2,4-Dimethylphenyl)acetamide]	136.2	–	–	–	–

Structure (SMILES)	collision cross section in nitrogen [1] [Å²]	collision cross section in nitrogen [2] [Å²]	collision cross section in nitrogen [3] [Å²]	collision cross section in nitrogen [4] [Å²]	further results
CCC1COC(Cn2cncn2)(c2ccc(Cl)cc2Cl)O1 (stereo unspecified) [Etaconazole]	174.1	189.3	–	175.4	–
O=C1NC(=O)C(c2ccccc2)(c2ccccc2)N1 [5,5-Diphenylhydantoin]	–	–	160	–	–
NC(=O)N(O)[C@@H]1COc2cc(OCc3ccccc3)ccc21	–	165.5	–	–	–
N#CCc1cccc(C(F)(F)F)c1 [[3-(Trifluoromethyl)phenyl]acetonitrile]	–	–	129.1	–	–
c1cc2ccc3cccc4ccc(c1)c2c34 [Pyrene]	–	–	–	–	collision cross section in nitrogen [5]: 136.3 Å²
COc1cc2ncnc(Nc3cccc(Cl)c3)c2cc1OC [N-(3-Chlorophenyl)-6,7-dimethoxyquinazolin-4-amine]	171	–	177.1	177.3	–
CC#C[C@]1(O)CC[C@H]2[C@@H]3CCC4=CC(=O)CCC4=C3[C@@H](c3ccc(N(C)C)cc3)C[C@@]21C [Mifepristone]	221.9	246.2	221.9	–	–
CCCCCCCCOC(=O)c1ccccc1C(=O)OCCCCCCCC [Di-n-octyl phthalate]	–	214.6	–	–	–
CNC(=O)Oc1cc(C)cc(C(C)C)c1 [Promecarb]	–	157.5	–	–	–
Cc1nc(-c2ccc(OCC(C)C)c(C#N)c2)sc1C(=O)O [Febuxostat]	183.6	–	–	–	–
Cc1cc(C)cc(O)c1 [3,5-Dimethylphenol]	–	–	127.3	–	–
CC[C@H](C)[C@@H](C(=O)O)n1sc2ccccc2c1=O	155.1	169.8	159.8	–	–
Cc1ccc(S(=O)(=O)O)c(C)c1 [2,4-Dimethylbenzenesulfonic acid]	–	–	138.3	–	–
COc1cccc2c1C(=O)c1c(O)c3c(c(O)c1C2=O)C[C@@](O)(C(=O)CO)C[C@@H]3O[C@H]1C[C@H](N)[C@H](O)[C@H](C)O1 [Doxorubicin hydrochloride]	230	232.8	223.1	230.5	–
CCCOP(=O)(OCCC)OCCC [Tripropyl phosphate]	–	168.5	–	–	–
CC(=O)CC(=O)Nc1ccc(Cl)cc1 [4'-Chloroacetoacetanilide]	–	–	143.8	–	–
C=C[C@](C)(O)CC[C@@H]1[C@@]2(C)CCCC(C)(C)[C@@H]2CC[C@@]1(C)O [Sclareol]	–	189.2	178.9	–	–
CCNc1ccc(C(=C2C=CC(=[N+](CC)CC)C=C2)c2ccc(N(CC)CC)cc2)c2ccccc12 [Basic Blue 7]	–	–	–	–	collision cross section in nitrogen [6]: 241.9 Å²; collision cross section in nitrogen [7]: 240.6 Å²
